# Target: T1, human PAD4 (Homo sapiens, UniProt Q9UM07)
# T1 construct: human PAD4 (NM_012387), A2-P663, was PCR amplified; His-SUMO (N, cleaved yes); made in house; host or cells: E. coli BL21(DE3)
# Assay: In vitro PAD4 BAEE biochemical assay
# Conditions: BAEE substrate 3 mM, 5 nM PAD4, 2 mM calcium chloride; geometric mean of multiple experiments
# Outline: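 Recombinant human PAD4 (5 nM final) with 2 mM CaCl2 was preincubated with compound 30 min at 25 °C in MOPS buffer pH 7.6, then reacted with 3 mM BAEE for 2 h at 25 °C. After EDTA stop, released ammonia was detected by o-phthalaldehyde/DTT fluorescence (ex 405/em 535 nm); IC50 from four-parameter fit, geometric mean.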
# T1 sequence (Q9UM07 2-663): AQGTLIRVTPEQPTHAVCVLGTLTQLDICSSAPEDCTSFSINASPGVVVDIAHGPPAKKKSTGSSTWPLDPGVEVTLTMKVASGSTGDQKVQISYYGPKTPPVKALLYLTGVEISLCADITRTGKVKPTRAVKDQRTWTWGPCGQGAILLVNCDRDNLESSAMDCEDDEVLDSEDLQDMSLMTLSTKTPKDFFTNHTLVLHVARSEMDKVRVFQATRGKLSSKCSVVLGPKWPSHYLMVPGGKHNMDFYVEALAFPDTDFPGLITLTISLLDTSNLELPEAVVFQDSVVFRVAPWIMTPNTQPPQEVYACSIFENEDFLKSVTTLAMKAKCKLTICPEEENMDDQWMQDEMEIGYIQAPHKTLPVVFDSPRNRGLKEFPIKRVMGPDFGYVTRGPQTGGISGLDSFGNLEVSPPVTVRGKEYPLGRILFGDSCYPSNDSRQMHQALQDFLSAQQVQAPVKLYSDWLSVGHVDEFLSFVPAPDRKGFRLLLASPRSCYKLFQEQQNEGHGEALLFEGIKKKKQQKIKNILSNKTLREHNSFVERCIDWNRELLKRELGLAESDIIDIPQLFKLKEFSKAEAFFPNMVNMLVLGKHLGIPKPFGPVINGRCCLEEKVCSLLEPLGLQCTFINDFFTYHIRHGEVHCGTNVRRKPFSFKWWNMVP
row,Structure (SMILES),IC50 [nM]
1,"COc1cc(C(=O)N2[C@H]3CC[C@@H]2[C@H](N)C3)cc2nc(-c3cc4ccc5nc4n3CCCCCC(C)(C)C(=O)N[C@@H]5C)c(C)n12 [Example 126, (10~{R})-16-[7-[(1~{R},2~{R},4~{S})-2-amino-7-azabicyclo[2.2.1]heptane-7-carbonyl]-5-methoxy-3-methyl-imidazo[1,2-a]pyridin-2-yl]-7,7,10-trimethyl-1,9,18-triazatricyclo[9.5.2.0^{14,17}]octadeca-11(18),12,14(17),15-tetraen-8-one]",25
2,"COc1cc(C(=O)N2[C@H]3CC[C@@H]2[C@H](N)C3)cc2nc(-c3cc4ccc5nc4n3CCCCCCCCC(=O)N5C)c(C)n12 [Example 127, 17-[7-[(1˜{R},2˜{R},4˜{S})-2-amino-7-azabicyclo[2.2.1]heptane-7-carbonyl]-5-methoxy-3-methyl-imidazo[1,2-a]pyridin-2-yl]-11-methyl-1,11,19-triazatricyclo[10.5.2.0^{15,18}]nonadeca-12(19),13,15(18),16-tetraen-10-one]",31
3,"COc1cc(C(=O)N2[C@H]3CC[C@@H]2[C@H](N)C3)cc2nc(-c3cc4ccc5nc4n3CCCCCC(=O)N3CCC[C@H]53)n(C)c12 [Example 128, (2~{R})-14-[5-[(1~{R},2~{R},4~{S})-2-amino-7-azabicyclo[2.2.1]heptane-7-carbonyl]-7-methoxy-1-methyl-benzimidazol-2-yl]-6,13,19-triazatetracyclo[11.5.2.0^{2,6}.0^{16,20}] icosa-1(19),14,16(20),17-tetraen-7-one]",13
4,"COc1cc(C(=O)N2[C@H]3CC[C@@H]2[C@H](N)C3)cc2nc(-c3cc4ccc5cc4n3CCCCCCCC(=O)N3CCC[C@H]53)n(C)c12 [Example 129, (2~{R})-16-[5-[(1~{R},2~{R},4~{S})-2-amino-7-azabicyclo[2.2.1]heptane-7-carbonyl]-7-methoxy-1-methyl-benzimidazol-2-yl]-6,15-diazatetracyclo[13.5.2.0^{2,6}.0^{18,22}] docosa-1(21),16,18(22),19-tetraen-7-one]",13
5,"COc1cc(C(=O)N2[C@H]3CC[C@@H]2[C@H](N)C3)cc2nc(-c3cc4ccc5nc4n3CCCCCCCCC(=O)N3CCC[C@H]53)n(C)c12 [Example 130, (2~{R})-17-[5-[(1~{R},2~{R},4~{S})-2-amino-7-azabicyclo[2.2.1]heptane-7-carbonyl]-7-methoxy-1-methyl-benzimidazol-2-yl]-6,16,22-triazatetracyclo[14.5.2.0^{2,6}.0^{19,23}] tricosa-1(22),17,19(23),20-tetraen-7-one]",21
6,"COc1cc(C(=O)N2[C@H]3CC[C@@H]2[C@H](N)C3)cc2nc(-c3cc4ccc5nc4n3CCCCCCC(=O)N3CCC[C@H]53)n(C)c12 [Example 131, (2~{R})-15-[5-[(1~{R},2~{R},4~{S})-2-amino-7-azabicyclo[2.2.1]heptane-7-carbonyl]-7-methoxy-1-methyl-benzimidazol-2-yl]-6,14,20-triazatetracyclo[12.5.2.0^{2,6}.0^{17,21}] henicosa-1(20),15,17(21),18-tetraen-7-one]",15
7,"COc1cc(C(=O)N2[C@H]3CC[C@@H]2[C@H](N)C3)cc2nc(-c3cc4ccc5nc4n3CCCCOCCC(=O)N3CCC[C@H]53)n(C)c12 [Example 132, (2~{R})-16-[5-[(1~{R},2~{R),4~{S})-2-amino-7-azabicyclo[2.2.1]heptane-7-carbonyl]-7-methoxy-1-methyl-benzimidazol-2-yl]-10-oxa-6,15,21-triazatetracyclo[13.5.2.0^{2,6}.0^{18,22}] docosa-1(21),16,18(22),19-tetraen-7-one]",28
8,"COc1cc(C(=O)N2[C@H]3CC[C@@H]2[C@H](N)C3)cc2nc(-c3cc4ccc5nc4n3CCCCOCC(=O)N3CCC[C@H]53)n(C)c12 [Example 133, (2~{R})-15-[5-[(1~{R},2~{R},4~{S})-2-amino-7-azabicyclo[2.2.1]heptane-7-carbonyl]-7-methoxy-1-methyl-benzimidazol-2-yl]-9-oxa-6,14,20-triazatetracyclo[12.5.2.0^{2,6}.0^{17,21}] henicosa-1(20),15,17(21),18-tetraen-7-one]",47
9,"COc1cc(C(=O)N2[C@H]3CC[C@@H]2[C@H](N)C3)cc2nc(-c3cc4ccc5nc4n3CCCCCCCC(=O)N3CC4(CC4)CC53)n(C)c12 (stereo partly drawn) [Example 134, 16-[5-[(1˜{R},2˜{R},4˜{S})-2-amino-7-azabicyclo[2.2.1]heptane-7-carbonyl]-7-methoxy-1-methyl-benzimidazol-2-yl]spiro[6,15,21-triazatetracyclo[13.5.2.0^{2,6}.0^{18,22}]docosa-1(21),16,18(22),19-tetraene-4,1′-cyclopropane]-7-one]",125
10,"COc1cc(C(=O)N2[C@H]3CC[C@@H]2[C@H](N)C3)cc2nc(-c3cc4ccc5nc4n3CCCCCCCC(=O)N3C[C@@H]4C[C@@H]4[C@H]53)n(C)c12 [Example 135, (2~{R),3~{S},5~{R})-17-[5-[(1~{R},2~{R},4~{S})-2-amino-7-azabicyclo[2.2.1]heptane-7-carbonyl]-7-methoxy-1-methyl-benzimidazol-2-yl]-7,16,22-triazapentacyclo [14.5.2.0^{2,7}.0^{3,5}.0^{19,23}] tricosa-1(22),17,19(23),20-tetraen-8-one]",37
11,"COc1cc(C(=O)N2[C@H]3CC[C@@H]2[C@H](N)C3)cc2nc(-c3cc4ccc5nc4n3CCCCCC[C@@H](C)C(=O)N[C@@H]5C)n(C)c12 [Example 136, (8~{R},11~{R})-17-[5-[(1~{R},2~{R},4~{S})-2-amino-7-azabicyclo[2.2.1]heptane-7-carbonyl]-7-methoxy-1-methyl-benzimidazol-2-yl]-8,11-dimethyl-1,10,19-triazatricyclo[10.5.2.0^{15,18}]nonadeca-12(19),13,15(18),16-tetraen-9-one]",40
12,"COc1cc(C(=O)N2[C@H]3CC[C@@H]2[C@H](N)C3)cc2nc(-c3cc4ccc5nc4n3CCCCCC[C@H](C)C(=O)N[C@@H]5C)n(C)c12 [Example 137, (8~{S},11~{R})-17-[5-[(1~{R},2~{R},4~{S})-2-amino-7-azabicyclo[2.2.1]heptane-7-carbonyl]-7-methoxy-1-methyl-benzimidazol-2-yl]-8,11-dimethyl-1,10,19-triazatricyclo[10.5.2.0^{15,18}]nonadeca-12(19),13,15(18),16-tetraen-9-one]",35
13,"COc1cc(C(=O)N2[C@H]3CC[C@@H]2[C@H](N)C3)cc2nc(-c3cc4ccc5nc4n3CCCCCC[C@@H]3CCN(C3=O)[C@@H]5C)n(C)c12 [Example 138, (2˜{R},6˜{R})-14-[5-[(1˜{R},2˜{R},4˜{S})-2-amino-7-azabicyclo[2.2.1]heptane-7-carbonyl]-7-methoxy-1-methyl-benzimidazol-2-yl]-2-methyl-3,13,19-triazatetracyclo[11.5.2.1^{3,6}.0^{16,20}]henicosa-1(19),14,16(20),17-tetraen-21-one]",18
14,"COc1cc(C(=O)N2[C@H]3CC[C@@H]2[C@H](N)C3)cc2nc(-c3cc4ccc5nc4n3CC3(CCCCCC(=O)N[C@@H]5C)CC3)n(C)c12 [Example 139, (11~{R})-17-[5-[(1~{R},2~{R},4~{S})-2-amino-7-azabicyclo[2.2.1]heptane-7-carbonyl]-7-methoxy-1-methyl-benzimidazol-2-yl]-11-methyl-spiro[1,10,19-triazatricyclo[10.5.2.0^{15,18}]nonadeca-12(19),13,15(18),16-tetraene-3,1′-cyclopropane]-9-one]",40
15,"COc1cc(C(=O)N2CCC[C@@H](N)C2)cc2nc(-c3cc4ccc5nc4n3CC(C)(C)CCCCCC(=O)N[C@@H]5C)n(C)c12 [Example 140, (11~{R})-17-[5-[(3~{R})-3-aminopiperidine-1-carbonyl]-7-methoxy-1-methyl-benzimidazol-2-yl]-3,3,11-trimethyl-1,10,19-triazatricyclo[10.5.2.0^{15,18}]nonadeca-12(19),13,15(18),16-tetraen-9-one]",97
16,"COc1cc(C(=O)N2[C@H]3CC[C@@H]2[C@H](N)C3)cc2nc(-c3cc4ccc5nc4n3CC(C)(C)CCCCCC(=O)N[C@@H]5C)n(C)c12 [Example 141, (11~{R})-17-[5-[(1~{R},2~{R},4~{S})-2-amino-7-azabicyclo[2.2.1]heptane-7-carbonyl]-7-methoxy-1-methyl-benzimidazol-2-yl]-3,3,11-trimethyl-1,10,19-triazatricyclo[10.5.2.0^{15,18}]nonadeca-12(19),13,15(18),16-tetraen-9-one]",68
17,"COc1cc(C(=O)N2[C@H]3CC[C@@H]2[C@H](N)C3)cc2nc(-c3cc4ccc5nc4n3C[C@H]3C[C@H]3CC[C@@H]3C[C@H]3C(=O)N[C@@H]5C)n(C)c12 [Example 142, (3~{S),5~{R},8~{R},10~{R},13~{R})-19-[5-[(1~{R},2~{R},4~{S})-2-amino-7-azabicyclo[2.2.1]heptane-7-carbonyl]-7-methoxy-1-methyl-benzimidazol-2-yl]-13-methyl-1,12,21-triazapentacyclo[12.5.2.0^{3,5}.0^{8,10}.0^ {17,20}]henicosa-14(21),15,17(20),18-tetraen-11-one]",28
18,"COc1cc(C(=O)N2[C@H]3CC[C@@H]2[C@H](N)C3)cc2nc(-c3cc4ccc5nc4n3C[C@H]3C[C@H]3CC[C@H]3C[C@@H]3C(=O)N[C@@H]5C)n(C)c12 [Example 143, (3~{S),5~{R},8~{S},10~{S},13~{R})-19-[5-[(1~{R},2~{R},4~{S})-2-amino-7-azabicyclo[2.2.1]heptane-7-carbonyl]-7-methoxy-1-methyl-benzimidazol-2-yl]-13-methyl-1,12,21-triazapentacyclo[12.5.2.0^{3,5}.0^{8,10}.0^ {17,20}]henicosa-14(21),15,17(20),18-tetraen-11-one]",158

# From US11976083B2, “Inhibitors of peptidylarginine deiminases” (Gilead Sciences, Inc., priority 2020, dated 2024)
